# Reference: patent US12466821B2 (Novartis AG, priority 2018, dated 2025)
# pEC50, pIC50: −log10 of the molar value.
# Assays:
# [1] = target: human HSV DNA polymerase UL30 (Human herpesvirus 1 (strain 17) (HHV-1) (Human herpes simplex virus 1), UniProt P04293); test: HSV polymerase biochemical assay (molecular beacon-based)
# In short: (§1)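 Readout was beacon fluorescence (ex 480, em 535 nm), used to derive IC50. Each dNTP was at 1.25 uM, with 200 nM primer and 100 nM beacon, after a 30-min RT inhibitor preincubation. Enzyme was 625 pM for HSV UL30 (20 min RT reaction) or 100 pM for CMV UL54 (60 min RT), both sf9-expressed MBP fusions, in pH 7.5 Tris buffer with MgCl2.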
# [2] = tested on: Luciferase-encoding HCMV, AD169 strain; test: CMV Luciferase assay (cellular herpesvirus replication); format: cell-based; settings: Human betaherpesvirus 5, AD169, read-out: CMV-Luc Cellular EC50
# In short: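 Neonatal human dermal fibroblasts were pretreated 1 h with compound (final 0.0159–50 μM or 0.00318–10 μM, 0.5% DMSO), then infected at MOI 1 with AD169 carrying pp28-promoter luciferase. After 72 h at 37 °C, Renilla-Glo luminescence normalized to no-virus and virus-only controls; EC50 by 4-parameter logistic model.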
# [3] = target: human CMV DNA polymerase UL54 (Human cytomegalovirus (strain AD169) (HHV-5) (Human herpesvirus 5), UniProt P08546); test: CMV polymerase biochemical assay (molecular beacon-based)
# In short: as §1
SMILES,pIC50 [1],pEC50 [2],pIC50 [3]
"CS(=O)(=O)CCN1CCn2c(c(C#N)cc(C(=O)NCc3ccc(Cl)cc3)c2=O)C1=O [Example 125, N-(4-chlorobenzyl)-9-cyano-2-(2-(methylsulfonyl)ethyl)-1,6-dioxo-1,3,4,6-tetrahydro-2H-pyrido[1,2-a]pyrazine-7-carboxamide]",5.99,4.69,6.25
"CC(C)(C)[S+]([O-])C1(CN2CCn3c(ccc(C(=O)NCc4ccc(C#N)cc4)c3=O)C2=O)CC1 (stereo not drawn) [Example 106, 2-((1-(tert-Butylsulfinyl)cyclopropyl)methyl)-N-(4-cyanobenzyl)-1,6-dioxo-2,3,4,6-tetrahydro-1H-pyrido[1,2-a]pyrazine-7-carboxamide]",6.01,5.95,7.48
COC(=O)N(C)CCN1CCn2c(ccc(C(=O)NCc3ccc(Cl)cc3)c2=O)C1=O [Example 61-1],4.97,5.30,6.13
O=C(NCc1ccc(Cl)cc1)c1ccc2n(c1=O)CCN(CCN1CCCCC1=O)C2=O [Example 57],5.21,5.14,6.43
N#Cc1ccc(CNC(=O)c2ccc3n(c2=O)CCN(CC2(S(=O)(=O)C4(C(F)F)CC4)CC2)C3=O)cc1F [Example 99-2],7.28,7.52,9.15
CCS(=O)(=O)C1(CN2CCn3c(ccc(C(=O)NCc4ccc(C#N)cc4)c3=O)C2=O)CC1 [Example 35],7.16,7.26,8.59
CC(C)S(=O)(=O)C1(CN2CCn3c(ccc(C(=O)NCc4ccc(C#N)c(F)c4)c3=O)C2=O)CC1 [Example 33],7.32,7.48,9.00
"O=C(NCc1ccc(Cl)cc1)c1ccc2n(c1=O)CCN(CC1(S(=O)(=O)C3CCC3)CC1)C2=O [Example 78, N-(4-chlorobenzyl)-2-((1-(cyclobutylsulfonyl)cyclopropyl)methyl)-1,6-dioxo-2,3,4,6-tetrahydro-1H-pyrido[1,2-a]pyrazine-7-carboxamide]",7.52,7.80,9.00
CC1(CS(=O)(=O)C2(CN3CCn4c(ccc(C(=O)NCc5ccc(Cl)cc5)c4=O)C3=O)CC2)COC1 [Example 103-1],6.96,6.63,8.03
CN(C(=O)OC(C)(C)C)C1(CN2CCn3c(ccc(C(=O)NCc4ccc(Cl)cc4)c3=O)C2=O)CC1 [Example 206],3.60,5.00,5.76
Cc1cc(C(=O)NCc2ccc(Cl)cc2)c(=O)n2c1C(=O)N(CCCS(C)(=O)=O)CC2 [Example 152],5.78,5.04,6.19
CN(CCN1CCn2c(ccc(C(=O)NCc3ccc(Cl)cc3)c2=O)C1=O)S(=O)(=O)C1CC1 [Example 60],6.05,5.90,6.91
N#Cc1ccc(CNC(=O)c2ccc3n(c2=O)CCN(CC2(S(=O)(=O)C4CCC4)CC2)C3=O)cc1F [Example 79-2],7.18,7.46,8.70
"C[C@H](CCO)S(=O)(=O)C1(CN2CCn3c(ccc(C(=O)NCc4ccc(Cl)cc4)c3=O)C2=O)CC1 (single isomer, unassigned) [Example 6, N-(4-chlorobenzyl)-2-((1-((4-hydroxybutan-2-yl)sulfonyl)cyclopropyl)methyl)-1,6-dioxo-2,3,4,6-tetrahydro-1H-pyrido[1,2-a]pyrazine-7-carboxamide]",7.26,7.03,8.62
Cc1cc(C(=O)NCc2ccc(C#N)c(F)c2)c(=O)n2c1C(=O)N(CC1(S(=O)(=O)C3CC3)CC1)CC2 [Example 93-3],7.55,7.68,8.23
"CN1CC(S(=O)(=O)C2(CN3CCn4c(ccc(C(=O)NCc5ccc(C#N)c(F)c5)c4=O)C3=O)CC2)C1 [Example 17, N-(4-cyano-3-fluorobenzyl)-2-((1-((1-methylazetidin-3-yl)sulfonyl)cyclopropyl)methyl)-1,6-dioxo-2,3,4,6-tetrahydro-1H-pyrido[1,2-a]pyrazine-7-carboxamide]",6.42,6.04,7.83
"COCC1(CN2CCn3c(ccc(C(=O)NCc4ccc(Cl)cc4)c3=O)C2=O)CC1 [Example 69, N-(4-chlorobenzyl)-2-((1-(methoxymethyl)cyclopropyl)methyl)-1,6-dioxo-2,3,4,6-tetrahydro-1H-pyrido[1,2-a]pyrazine-7-carboxamide]",5.28,5.00,6.18
O=C(NCc1ccc(Cl)cc1)c1ccc2n(c1=O)CCN(CCS(=O)(=O)C1CC1)C2=O [Example 193],6.38,5.91,7.47
"C[S@+]([O-])C1(CN2CCn3c(ccc(C(=O)NCc4ccc(Cl)cc4)c3=O)C2=O)CC1 (single isomer, unassigned) [Example 67-3, N-(4-chlorobenzyl)-2-((1-(methylsulfinyl)cyclopropyl)methyl)-1,6-dioxo-2,3,4,6-tetrahydro-1H-pyrido[1,2-a]pyrazine-7-carboxamide]",4.88,5.14,6.54
N#Cc1ccc(CNC(=O)c2ccc3n(c2=O)CCN(CC2(S(=O)(=O)CC4(C(F)(F)F)CC4)CC2)C3=O)cc1F [Example 104-3],6.56,5.97,8.00
Cc1cc(C(=O)NCc2ccc(F)cc2)c(=O)n2c1C(=O)N(CC1(S(C)(=O)=O)CC1)CC2 [Example 86-1],6.54,5.82,7.95
"Cc1nc(-c2cc(C(=O)NCc3ccc(Cl)cc3)c(=O)n3c2C(=O)N(CCS(C)(=O)=O)CC3)no1 [Example 159, N-(4-chlorobenzyl)-9-(5-methyl-1,2,4-oxadiazol-3-yl)-2-(2-(methylsulfonyl)ethyl)-1,6-dioxo-1,3,4,6-tetrahydro-2H-pyrido[1,2-a]pyrazine-7-carboxamide]",5.25,4.58,5.75
"CS(=O)(=O)CC1(CN2CCn3c(ccc(C(=O)NCc4ccc(Cl)cc4)c3=O)C2=O)CC1 [Example 173, N-(4-chlorobenzyl)-2-((1-((methylsulfonyl)methyl)cyclopropyl)methyl)-1,6-dioxo-1,3,4,6-tetrahydro-2H-pyrido[1,2-a]pyrazine-7-carboxamide]",6.63,6.44,7.69
CC(C)(C)NS(=O)(=O)C1(CN2CCn3c(ccc(C(=O)NCc4ccc(C#N)cc4)c3=O)C2=O)CC1 [Example 73-1],7.33,7.03,8.82
CC(C)(c1ncno1)S(=O)(=O)C1(CN2CCn3c(ccc(C(=O)NCc4ccc(C#N)cc4)c3=O)C2=O)CC1 [Example 179],7.77,6.90,9.40
CS(=O)(=O)C1(CN2CCn3c(ccc(C(=O)NCC4CCC5(CC4)CC5)c3=O)C2=O)CC1 [Example 42],4.89,5.13,7.36
"N#Cc1ccc(CNC(=O)c2ccc3n(c2=O)CCN(CC2(S(=O)(=O)[C@@H]4CC4(F)F)CC2)C3=O)cc1Cl (single isomer, unassigned) [Example 102-2]",6.79,7.07,8.82
N#Cc1ccc(CNC(=O)c2ccc3n(c2=O)CCN(CC2(S(=O)(=O)C4CCNC4)CC2)C3=O)cc1 (stereo not drawn) [Example 81-3],6.67,5.93,8.15
